From US10363239B2, “Method for inhibiting growth of cancer cells” (Pain Therapeutics, Inc., priority 2013, dated 2019)
Where two headings read alike, the source gives them in different places.

Key:
[1] = tested on: mu opiate receptor (MOR); assay: MOR agonist activity using [35S]GTPγS binding assay in striatal membranes; assay type: biochemical; settings: for MOR agonist activity ([35S]GTPγS binding), FLNA-Binding Compound as Agonist 1 μM + BFNA: 1 μM compound + 1 μM β-funaltrexamine
In short: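 Striatal membranes (200 μg) were preincubated 5 min at 30 °C in HEPES pH 7.5 with 100 mM NaCl, 1 mM MgCl2 and 0.5 nM [35S]GTPγS, then 5 min more with 0.1–10 μM compound. Gαo was immunoprecipitated and bound radioactivity counted by scintillation.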

[2] = biological target: FLNA pentapeptide of SEQ ID NO: 1 (Bn-VAKGL) (Homo sapiens, UniProt P21333); assay: FITC-NLX-based FLNA screening assay (inhibition of FITC-naloxone binding to Bn-VAKGL on streptavidin plates); settings: 10 nM FITC-NLX
[3] = 0.1 μM compound relative to DAMGO
[4] = 1 μM compound + BFNA relative to DAMGO + BFNA
[5] = 1 μM compound relative to DAMGO
[6] = FLNA-binding compound 0.01 μM, read-out: Percent Binding Inhibition
[7] = FLNA-binding compound 0.1 μM, read-out: Percent Binding Inhibition
[8] = FLNA-binding compound 1 μM, read-out: Percent Binding Inhibition
[9] = Series C-1, 0.1 μM compound, relative to DAMGO
[10] = Series C-1, 0.1 μM compound, [35S]GTPγS binding to Gαo, striatal membranes
[11] = Series C-1, 1 μM compound + 1 μM β-FNA
[12] = Series C-1, 1 μM compound + β-FNA, relative to DAMGO + BFNA
[13] = Series C-1, 1 μM compound, relative to DAMGO
[14] = Series C-1, 1 μM compound, [35S]GTPγS binding to Gαo, striatal membranes
[15] = read-out: Percent Binding Inhibition, FLNA-binding compound 0.01 μM
[16] = read-out: Percent Binding Inhibition, FLNA-binding compound 0.1 μM
[17] = read-out: Percent Binding Inhibition, FLNA-binding compound 1 μM
[18] = Series B, 0.1 μM compound, relative to DAMGO
[19] = Series B, 0.1 μM compound, [35S]GTPγS binding to Gαo, striatal membranes
[20] = Series B, 1 μM compound + 1 μM β-FNA
[21] = Series B, 1 μM compound + β-FNA, relative to DAMGO + BFNA
[22] = Series B, 1 μM compound, relative to DAMGO
[23] = Series B, 1 μM compound, [35S]GTPγS binding to Gαo, striatal membranes

SMILES | MOR agonist activity ([35S]GTPγS binding), FLNA-Binding Compound as Agonist 0.1 μM ([1]; 0.1 μM compound) | % DAMGO (0.1 μM) [1, 3] | MOR agonist activity ([35S]GTPγS binding), FLNA-Binding Compound as Agonist 1 μM ([1]; 1 μM compound) | MOR agonist activity ([35S]GTPγS binding), FLNA-Binding Compound as Agonist 1 μM + BFNA [1] | % DAMGO + BFNA [1, 4] | % DAMGO (1 μM) [1, 5] | inhibition at 0.01 µM [2, 6] | inhibition at 0.1 µM [2, 7] | inhibition at 1 µM [2, 8] | inhibition at 0.01 µM [2, 15] | inhibition at 0.1 µM [2, 16] | inhibition at 1 µM [2, 17] | also measured
Cc1ccc(C(C)C)c(OCC(O)CN2CC(C)OC(C)C2)c1 (stereo not drawn) [Compound A0028] | 143.6% | 81.3% | 187.7% | 116.7% | 443.7% | 73.8% | 39.5% | 43.8% | 50.5% | – | – | – | –
Cc1ccccc1S(=O)(=O)N1CCC2(CC1)OCCN2S(=O)(=O)c1ccccc1C [Compound C0015] | – | – | – | – | – | – | – | – | – | 31.2% | 40.6% | 45.5% | % DAMGO (0.1 μM) [1, 9]: 78.5%; Concentration of FLNA-Binding Compound as Agonist 0.1 μM [1, 10]: 138.7%; Concentration of FLNA-Binding Compound as Agonist 1 μM + BFNA [1, 11]: 126.8%; % DAMGO + BFNA [1, 12]: 193.0%; % DAMGO (1 μM) [1, 13]: 78.9%; Concentration of FLNA-Binding Compound as Agonist 1 μM [1, 14]: 204.7%
CC(=O)c1ccc(C(=O)N2CCC3(CC2)OCCN3C(=O)c2ccc(C(C)=O)cc2)cc1 [Compound C0054] | – | – | – | – | – | – | 32.9% | 39.4% | 43.3% | – | – | – | % DAMGO (0.1 μM) [1, 9]: 47.0%; Concentration of FLNA-Binding Compound as Agonist 0.1 μM [1, 10]: 68.2%; Concentration of FLNA-Binding Compound as Agonist 1 μM + BFNA [1, 11]: 43.5%; % DAMGO + BFNA [1, 12]: 98.9%; % DAMGO (1 μM) [1, 13]: 54.5%; Concentration of FLNA-Binding Compound as Agonist 1 μM [1, 14]: 127.0%
CC1CCC(C(C)C)C(OCC(O)CN2CCN(CCN3CCCCC3)CC2)C1 (stereo not drawn) [Compound A0031] | 178.2% | 100.9% | 297.0% | 150.9% | 573.8% | 116.8% | 40.8% | 47.6% | 52.9% | – | – | – | –
CCN(CC)CC(O)COC1CC(C)CCC1C(C)C (stereo not drawn) [Compound A0032] | 226.9% | 115.6% | 257.8% | 133.0% | 180.0% | 93.4% | – | – | – | 43% | 50.3% | 54.5% | –
CC1CCC(C(C)C)C(OCC(O)CN2CCCN(C)CC2)C1 (stereo not drawn) [Compound A0010] | 277.2% | 161.9% | 319.0% | 190.3% | 365.3% | 119.5% | 36% | 36.5% | 39% | – | – | – | –
COc1ccccc1CC(=O)CC1c2c(cc3c(c2OC)OCO3)CC[N+]1(C)C (stereo not drawn) [Compound 5009] | – | – | – | – | – | – | – | – | – | 42.5% | 47.3% | 54.3% | % DAMGO (0.1 μM) [1, 18]: 66.9%; MOR agonist activity, percent [35S]GTPγS binding at the stated compound concentration [1, 19]: 128.5%; MOR agonist activity, percent [35S]GTPγS binding at the stated compound concentration [1, 20]: 87.5%; % DAMGO + BFNA [1, 21]: 181.5%; % DAMGO (1 μM) [1, 22]: 83.2%; MOR agonist activity, percent [35S]GTPγS binding at the stated compound concentration [1, 23]: 270.4%
COc1ccc(C(=O)CC2c3c(cc4c(c3OC)OCO4)CC[N+]2(C)C)c(F)c1 (stereo not drawn) [Compound B0027] | – | – | – | – | – | – | – | – | – | 40.2% | 46.7% | 49.8% | % DAMGO (0.1 μM) [1, 18]: 82.3%; MOR agonist activity, percent [35S]GTPγS binding at the stated compound concentration [1, 19]: 140.9%; MOR agonist activity, percent [35S]GTPγS binding at the stated compound concentration [1, 20]: 21.6%; % DAMGO + BFNA [1, 21]: 41.5%; % DAMGO (1 μM) [1, 22]: 100.0%; MOR agonist activity, percent [35S]GTPγS binding at the stated compound concentration [1, 23]: 266.9%
COc1ccc(C(=O)CC2c3c(cc4c(c3OC)OCO4)CC[N+]2(C)C)cc1OC (stereo not drawn) [Compound B0026] | – | – | – | – | – | – | – | – | – | 41.1% | 43.3% | 48.2% | % DAMGO (0.1 μM) [1, 18]: 88.8%; MOR agonist activity, percent [35S]GTPγS binding at the stated compound concentration [1, 19]: 152.0%; MOR agonist activity, percent [35S]GTPγS binding at the stated compound concentration [1, 20]: 28.8%; % DAMGO + BFNA [1, 21]: 55.3%; % DAMGO (1 μM) [1, 22]: 87.4%; MOR agonist activity, percent [35S]GTPγS binding at the stated compound concentration [1, 23]: 233.3%
CC1CCC(C)C(OCC(O)CN2CC(C)OC(C)C2)C1 (stereo not drawn) [Compound A0022] | 154.1% | 90.0% | 216.0% | 28.0% | 53.7% | 80.9% | 41.9% | 49.7% | 56.8% | – | – | – | –
O=S(=O)(c1ccc(Br)cc1F)N1CCC2(CC1)OCCN2S(=O)(=O)c1ccc(Br)cc1F [Compound C0078] | – | – | – | – | – | – | – | – | – | 46.6% | 48% | 50.5% | % DAMGO (0.1 μM) [1, 9]: 82.4%; Concentration of FLNA-Binding Compound as Agonist 0.1 μM [1, 10]: 138.1%; Concentration of FLNA-Binding Compound as Agonist 1 μM + BFNA [1, 11]: 170.7%; % DAMGO + BFNA [1, 12]: 359.4%; % DAMGO (1 μM) [1, 13]: 106.4%; Concentration of FLNA-Binding Compound as Agonist 1 μM [1, 14]: 236.6%
CCN1CCC2(CC1)OCCN2S(=O)(=O)c1ccc(C(C)=O)cc1 [Compound C0094M] | – | – | – | – | – | – | 43% | 52.8% | 57.5% | – | – | – | % DAMGO (0.1 μM) ([1]; Series C-2, 0.1 μM compound, relative to DAMGO): 100.2%; MOR agonist activity, percent [35S]GTPγS binding at the stated compound concentration ([1]; Series C-2, 0.1 μM compound, [35S]GTPγS binding to Gαo, striatal membranes): 172.5%; MOR agonist activity, percent [35S]GTPγS binding at the stated compound concentration ([1]; Series C-2, 1 μM compound + 1 μM β-FNA): 115.3%; % DAMGO + BFNA ([1]; Series C-2, 1 μM compound + β-FNA, relative to DAMGO + BFNA): 334.2%; % DAMGO (1 μM) ([1]; Series C-2, 1 μM compound, relative to DAMGO): 119.9%; MOR agonist activity, percent [35S]GTPγS binding at the stated compound concentration ([1]; Series C-2, 1 μM compound, [35S]GTPγS binding to Gαo, striatal membranes): 263.5%
COc1ccc(C(=O)N2CCC3(CC2)OCCN3C(=O)c2ccc(OC)cc2)cc1 [Compound C0017] | – | – | – | – | – | – | 28.9% | 35.4% | 40.7% | – | – | – | % DAMGO (0.1 μM) [1, 9]: 87.1%; Concentration of FLNA-Binding Compound as Agonist 0.1 μM [1, 10]: 153.8%; Concentration of FLNA-Binding Compound as Agonist 1 μM + BFNA [1, 11]: 94.1%; % DAMGO + BFNA [1, 12]: 143.2%; % DAMGO (1 μM) [1, 13]: 109.7%; Concentration of FLNA-Binding Compound as Agonist 1 μM [1, 14]: 284.5%
COc1c2c(cc3c1C(CC(=O)/C=C/c1ccc(Cl)cc1)[N+](C)(C)CC3)OCO2 (stereo not drawn) [Compound B0019] | – | – | – | – | – | – | – | – | – | 34.3% | 41% | 49% | % DAMGO (0.1 μM) [1, 18]: 59.7%; MOR agonist activity, percent [35S]GTPγS binding at the stated compound concentration [1, 19]: 101.0%; MOR agonist activity, percent [35S]GTPγS binding at the stated compound concentration [1, 20]: 81.4%; % DAMGO + BFNA [1, 21]: 123.3%; % DAMGO (1 μM) [1, 22]: 96.0%; MOR agonist activity, percent [35S]GTPγS binding at the stated compound concentration [1, 23]: 256.5%
OC(COc1ccc(Br)c(F)c1)CN1CCCCC1 (stereo not drawn) [Compound A0058] | 70.7% | 45.3% | 244.3% | 59.9% | 150.1% | 106.0% | – | – | – | 28.9% | 36.6% | 42.1% | –
